Results published in patent publication US11523607B2, “Sperm storage media comprising MHY 1485 for enhancing sperm quality and function” (UNIVERSIDADE DO PORTO, priority 2017, dated 2022).

Legend:
Assay type in all cases: cell-based
[1] = test system: Human spermatozoa; test: Human spermatozoa capacitation after storage; details: 2 μg/mL in Sperm Preparation Medium, 37° C.
Procedure: FIG. 4—Human spermatozoa capacitation after storage for 120 minutes at 37° C. Spermatozoa were stored in Sperm Preparation Medium (ORIGIO, Måløv, Denmark) not supplemented (Control) or supplemented with an mTOR activator (MHY 1485). Spermatozoa were also incubated with an mTOR inhibitor (Rapamycin; Rap) as a negative control. Sperm capacitation was assessed by evaluating sperm phosphotyrosine levels after 180 minutes incubation in Sperm Capacitation Medium (LifeGlobal Europe, Brussels, Belgium). Results are presented as mean±standard error of the mean (n=12); Significant results (P<0.05) are indicated as *-vs. Control.
(§1) We evaluated the use of an mTOR activator (MHY 1485) as an additive during sperm storage at 37° C. […] We assessed key sperm quality parameters, namely sperm viability and sperm motility, using standard methods, as described by the guidelines of the World Health Organization, with the supervision of a certified embryologist. We also evaluated the oxidative damages to sperm DNA (DNA fragmentation), proteins (protein carbonylation) and lipids (lipid peroxidation). Sperm DNA fragmentation was assessed using the Halosperm® kit (Halotech DNA SL, Madrid, Spain). Sperm protein carbonylation and lipid peroxidation were evaluated using specific antibodies (ABCAM®, Cambridge, USA) raised against 2,4-dinitrophenol groups and anti-4-hydroxynonenal groups (respectively). […]

[2] = test system: Human spermatozoa; test: Human spermatozoa metabolism during storage (glucose consumption, lactate production by 1H-NMR); details: 2 μg/mL, 37° C.
Procedure: (§2) FIG. 3—Human spermatozoa metabolism during storage for 120 minutes at 37° C. Spermatozoa were stored in Sperm Preparation Medium (ORIGIO, Måløv, Denmark) not supplemented (Control) or supplemented with an mTOR activator (MHY 1485). Spermatozoa were also incubated with an mTOR inhibitor (Rapamycin; Rap) as a negative control. Sperm glucose consumption and lactate production were assessed by 1H nuclear magnetic resonance. Results are presented as mean±standard error of the mean (n=12); Significant results (P<0.05) are indicated as *-vs. Control.
We evaluated the use of an mTOR activator (MHY 1485) as an additive during sperm storage at 37° C. We added the mTOR activator (at a concentration of 2 μg/mL) to a commercial sperm storage medium (Sperm Preparation Medium®; Origio, Malay, Denmark) and stored the spermatozoa suspension (2 million spermatozoa per mL) in microtubes (at 37° C. in a 5% CO2 incubator) for up to 120 minutes, evaluating key parameters of quality and the degree of oxidative damages to those cells at regular intervals (0, 30 and 120 minutes). We assessed key sperm quality parameters, namely sperm viability and sperm motility, using standard methods, as described by the guidelines of the World Health Organization, with the supervision of a certified embryologist. We also evaluated the oxidative damages to sperm DNA (DNA fragmentation), proteins (protein carbonylation) and lipids (lipid peroxidation). Sperm DNA fragmentation was assessed using the Halosperm® kit (Halotech DNA SL, Madrid, Spain). Sperm protein carbonylation and lipid peroxidation were evaluated using specific antibodies (ABCAM®, Cambridge, USA) raised against 2,4-dinitrophenol groups and anti-4-hydroxynonenal groups (respectively). The metabolic alterations of spermatozoa were also evaluated by means of the proton magnetic resonance technique (1H-NMR), using a Varian 600 MHz spectrometer equipped with a 3 mm indirect detection probe with z-gradient (Varian, Palo Alto, USA). At the end of the storage, we evaluated the capacitation potential of the spermatozoa, by incubating the cells in a commercial medium (Lifeglobal®, Guilford, USA) and assessing the 3-nitrotyrosine levels using specific antibodies (ABCAM®, Cambridge, USA). An mTOR inhibitor (Rapamycin at a concentration of 0,1 μg/mL) was used as a negative control.

[3] = test system: Human spermatozoa; test: Human spermatozoa viability after storage (eosin-nigrosin staining); details: 2 μg/mL in Sperm Preparation Medium, 37° C.
Procedure: as §2, with “1—Human” for “3—Human”, “viability after storage” for “metabolism”, “during” for “during storage for”, “Viability was” for “Sperm glucose consumption and lactate production were”, “the eosin-nigrosin staining method.” for “1H nuclear magnetic resonance.”
as §1

[4] = test system: Human spermatozoa; test: Human spermatozoa lipid peroxidation after storage (immunoblot); details: 2 μg/mL, 37° C., 120 minutes storage
Procedure: (§3) FIG. 6—Human spermatozoa oxidative damage to proteins (carbonylation) and lipids (peroxidation) after storage for 120 minutes at 37° C. Spermatozoa were stored in Sperm Preparation Medium (ORIGIO, Måløv, Denmark) not supplemented (Control) or supplemented with an mTOR activator (MHY 1485). Spermatozoa were also incubated with an mTOR inhibitor (Rapamycin; Rap) as a negative control. Protein carbonylation was assessed by immunobloting a specific @DNP antibody (SigmaAldrich, St. Louis, Mo., USA). Lipid peroxidation was assessed by immunobloting a specific @HNE antibody (Merck Millipore, Temecula, USA). […]
as §1

[5] = test system: Human spermatozoa; test: Human spermatozoa protein carbonylation after storage (immunoblot); details: 2 μg/mL, 37° C., 120 minutes storage
Procedure: as §3, §1

[6] = test system: Human spermatozoa; test: Human spermatozoa DNA fragmentation after storage (Halosperm kit); details: 2 μg/mL, 37° C., 120 minutes storage
Procedure: (§4) FIG. 5—Human spermatozoa DNA fragmentation after storage for 120 minutes at 37° C. Spermatozoa were stored in Sperm Preparation Medium (ORIGIO, Måløv, Denmark) not supplemented (Control) or supplemented with an mTOR activator (MHY 1485). Spermatozoa were also incubated with an mTOR inhibitor (Rapamycin; Rap) as a negative control. DNA fragmentation was assessed using a Halosperm G2 kit (HALOTECH, Madrid, Spain). Results are presented as mean±standard error of the mean (n=12); Significant results (P<0.05) are indicated as *-vs. Control.
as §1

[7] = test system: Human spermatozoa; test: Human spermatozoa motility after storage; details: 2 μg/mL in Sperm Preparation Medium, 37° C.
Procedure: as §4, with “2—Human” for “5—Human”, “motility” for “DNA fragmentation”, “during” for “for”, “control.” for “control. DNA fragmentation was assessed using a Halosperm G2 kit (HALOTECH, Madrid, Spain).”
as §1

- sperm DNA integrity (DNA fragmentation) [6]: DNA remaining fully intact
SMILES: O=[N+]([O-])c1ccc(Nc2nc(N3CCOCC3)nc(N3CCOCC3)n2)cc1 [MHY 1485]
- capacitation potential ([1]; 120 minutes storage): capable to preserve sperm viability and its capacitation potential
- capacitation potential ([1]; during storage): sustain its capacitation potential
- consumption of hexoses ([2]; 30 minutes storage): no differences were observed
- production of lactate ([2]; 30 minutes storage): no differences were observed
- glucose consumption ([2]; 120 minutes storage): maintained
- lactate production ([2]; 120 minutes storage): increased
- percentage of viable sperm ([3]; 30 minutes storage, vs time zero): maintained the percentage of viable sperm at similar levels as those of time zero
- sperm viability ([3]; 120 minutes storage): capable to preserve sperm viability
- lipid oxidative damage (lipid peroxidation) [4]: not increased
- sperm protein oxidative damage (protein carbonylation) [5]: not increased
- spermatozoa motility ([7]; 120 minutes storage): sustaining a higher motility
- spermatozoa motility ([7]; during storage): capable to maintain sperm motile
